The subject of this test is GDNF mRNA. Description: GDNF mRNA expression by real-time PCR in cultured human skin-derived stem cells. It is filed as cell-based. Here is the method:
To find a compound or cytokine to increase the expression of GDNF in cells, following 6 candidate materials were examined: Valproic Acid (VA), Platelet-Derived Growth Factor (PDGF), SAG (or Purmorphamine or rh-Sonic Hedgehog (PeproTech)), Bone Morphogenic Protein 4 (BMP4). These 6 materials were added to 7 wells, which had reached to confluence in Example 1, in the following combinations: (1) Control (not added) (2) VA (1 uM), (3) VA (1 uM)+PDGF (long/ml), (4) VA (1 uM)+SAG (0.3 uM), (5) PDGF (long/ml), (6) SAG (0.3 uM), (7) […] (long/ml). 72 hours after the addition, total RNA was extracted from each well by TRIzol method. Using “ReverTra Ace (trade mark) qPCR RT kit”, a cDNA synthesis kit for PCR, 0.5 ug of each total RNA was added to 10 μL of ReverTra Ace (trade mark) qPCR RT kit to synthesize respective cDNA. […]
PCR was performed by three-step method under the conditions of annealing 60° C./elongation 72° C. and the steps (1) to (2) were repeated for 40 cycles. In the last step, a Melting Curve was analyzed and it was confirmed that no primer dimer was produced. […]
For orientation: Quantitative PCR measures a nucleic acid by following its amplification.

Consider `c1ccc2c(Oc3nc(Nc4ccc(N5CCOCC5)cc4)c4ncn(C5CCCCC5)c4n3)cccc2c1` [Purmorphamine, 9-Cyclohexyl-N-[4-(4-morpholinyl)phenyl]-2-(1-naphthalenyloxy)-9H-purin-6-amine], for which the “expression of GDNF mRNA (GDNF mRNA/GAPDH mRNA) compared with control” value (Purmorphamine 1.5 uM used in place of SAG) was around 10 times.

Consider `CNC1CCC(N(Cc2cccc(-c3ccncc3)c2)C(=O)c2sc3ccccc3c2Cl)CC1` (centres unmarked) [SAG, N-Methyl-N′-(3-pyridinylbenzyl)-N′-(3-chlorobenzo[b]thiophene-2-carbonyl)-1,4-diaminocyclohexane], for which, where the note is “SAG 0.3 uM, 72 hours after addition”, the “expression of GDNF mRNA (GDNF mRNA/GAPDH mRNA) compared with control” value is reported as “more than 10 times”.
